The term EC50 denotes the concentration at which the effect is half-maximal.

The target in this test is PB2 (Influenza A virus, UniProt P03428). Briefly: biochemical. The test is classed as binding.
PB2, sequence (P03428 whole entry, looked up): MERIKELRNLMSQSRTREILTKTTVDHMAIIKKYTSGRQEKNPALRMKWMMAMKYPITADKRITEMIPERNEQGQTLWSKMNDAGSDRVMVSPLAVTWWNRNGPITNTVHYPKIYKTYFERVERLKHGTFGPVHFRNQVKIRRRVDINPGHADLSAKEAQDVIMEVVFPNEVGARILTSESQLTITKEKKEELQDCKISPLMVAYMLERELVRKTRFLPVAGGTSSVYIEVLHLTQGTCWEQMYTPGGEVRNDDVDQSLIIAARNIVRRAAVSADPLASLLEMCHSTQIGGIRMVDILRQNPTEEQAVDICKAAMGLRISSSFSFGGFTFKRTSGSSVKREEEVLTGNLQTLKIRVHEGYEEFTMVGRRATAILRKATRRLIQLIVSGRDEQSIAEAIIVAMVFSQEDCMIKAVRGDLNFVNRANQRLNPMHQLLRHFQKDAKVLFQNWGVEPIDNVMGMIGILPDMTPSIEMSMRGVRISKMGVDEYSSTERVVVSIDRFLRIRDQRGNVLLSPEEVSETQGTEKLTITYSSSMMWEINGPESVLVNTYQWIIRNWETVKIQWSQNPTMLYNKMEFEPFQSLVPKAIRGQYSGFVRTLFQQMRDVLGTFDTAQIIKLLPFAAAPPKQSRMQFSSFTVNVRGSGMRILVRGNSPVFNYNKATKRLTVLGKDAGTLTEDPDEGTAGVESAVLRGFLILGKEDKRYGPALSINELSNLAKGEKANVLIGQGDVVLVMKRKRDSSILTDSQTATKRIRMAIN
On to `CCC(CC)OCCOCCCCCN(C)C(=O)N[C@H]1CCC[C@@H](Nc2nc(-c3c[nH]c4ncc(F)cc34)ncc2F)C1` [Compound A246], for which the EC50 was > 100 µM. As for `CCOC(=O)CCOCCOCCOCC(=O)N1CCC[C@@H](Nc2nc(-c3c[nH]c4ncc(F)cc34)ncc2F)C1` [Compound C6], the figure is 5 to 25 µM; as for `CCOCCOCCCCCN(C(=O)N[C@@H]1CCC[C@H](Nc2nc(-c3c[nH]c4ncc(Cl)cc34)ncc2F)C1)C(C)C` [Compound A248], > 100 µM. Then `CCOCCOCCCCCN(CC(=O)N(C)C)C(=O)N[C@@H]1CCC[C@H](Nc2nc(-c3c[nH]c4ncc(F)cc34)ncc2F)C1` [Compound B7], with 25 to 50 µM. As for `CCOc1ccc(-c2ccnc(C(=O)N[C@@H]3CCC[C@H](Nc4nc(-c5c[nH]c6ncc(F)cc56)ncc4F)C3)c2)cc1` [Compound A62], the figure is 5 to 25 µM; as for `CCOCCOCCCCCNC(=O)N(C)[C@H]1CCC[C@@H](Nc2nc(-c3c[nH]c4ncc(F)cc34)ncc2F)C1` [Compound A219], 25 to 50 µM. `CCOCCOCCCCCN(C)C(=O)N1CCC(CNc2nc(-c3c[nH]c4ncc(F)cc34)ncc2F)C1` (stereo not drawn) [Compound C8]: the EC50 is > 100 µM. Then `CCOCCOCCOCCNC(=O)N(CCOCc1ccccc1)[C@@H]1CCC[C@H](Nc2nc(-c3c[nH]c4ncc(F)cc34)ncc2F)C1` [Compound B5], with > 100 µM; and `Cc1cccc(CNC(=O)OCc2ccnc(C(=O)N[C@H]3CCC[C@@H](Nc4nc(-c5c[nH]c6ncc(F)cc56)ncc4F)C3)c2)c1` [Compound A127], with > 100 µM; and `O=C(NCc1ccc(Oc2ccccc2)cc1)OCc1ccnc(C(=O)N[C@H]2CCC[C@@H](Nc3nc(-c4c[nH]c5ncc(F)cc45)ncc3F)C2)c1` [Compound A102], with > 100 µM. Then `CCOc1ccccc1CNC(=O)OCc1ccnc(C(=O)N[C@H]2CCC[C@@H](Nc3nc(-c4c[nH]c5ncc(F)cc45)ncc3F)C2)c1` [Compound A133], with > 100 µM; and `O=C(N[C@@H]1CCC[C@H](Nc2nc(-c3c[nH]c4ncc(F)cc34)ncc2F)C1)c1cncc(-c2ccccc2)c1` [Compound A67], with > 100 µM; and `O=C(NCc1cccc(Oc2ccccc2)c1)OCc1ccnc(C(=O)N[C@H]2CCC[C@@H](Nc3nc(-c4c[nH]c5ncc(F)cc45)ncc3F)C2)c1` [Compound A119], with > 100 µM. As for `O=C(NCc1ccc2c(c1)OCO2)OCc1ccnc(C(=O)N[C@H]2CCC[C@@H](Nc3nc(-c4c[nH]c5ncc(F)cc45)ncc3F)C2)c1` [Compound A130], the figure is > 100 µM; as for `CCOCCOCCCCCN(C)C(=O)NCC(C)CNc1nc(-c2c[nH]c3ncc(F)cc23)ncc1F` (stereo not drawn) [Compound A218], > 100 µM. Regarding `CCOCCOCCCCCN(Cc1ccncc1)C(=O)N[C@H]1CCC[C@@H](Nc2nc(-c3c[nH]c4ncc(F)cc34)ncc2F)C1` [Compound A208], the EC50 was > 100 µM.

Regarding `O=C(NCc1ccccc1F)OCc1ccnc(C(=O)N[C@H]2CCC[C@@H](Nc3nc(-c4c[nH]c5ncc(F)cc45)ncc3F)C2)c1` [Compound A124], the concentration giving a half-maximal response (EC50) is > 100 µM. Consider `O=C(CNC(=O)OCc1ccnc(C(=O)N[C@H]2CCC[C@@H](Nc3nc(-c4c[nH]c5ncc(F)cc45)ncc3F)C2)c1)Nc1ccccc1C(=O)O` [Compound A129], for which the EC50 was < 5 µM. Then `CCOCCOc1cccc(CC(=O)N[C@H]2CCC[C@@H](Nc3nc(-c4c[nH]c5ncc(F)cc45)ncc3F)C2)c1` [Compound A279], with > 100 µM. Then `CCOCCc1ccnc(C(=O)N[C@H]2CCC[C@@H](Nc3nc(-c4c[nH]c5ncc(F)cc45)ncc3F)C2)c1` [Compound A44], with 25 to 50 µM; and `CCOCCOCCCCCN(CC)C(=O)N[C@H]1CCC[C@@H](Nc2nc(-c3c[nH]c4ncc(F)cc34)ncc2F)C1` [Compound A203], with > 100 µM; and `CCOCCOCCCc1cc(C(=O)N[C@@H]2CCC[C@H](Nc3nc(-c4c[nH]c5ncc(F)cc45)ncc3F)C2)ncn1` [Compound A33], with > 100 µM. For `CC(NC(=O)OCc1ccnc(C(=O)N[C@H]2CCC[C@@H](Nc3nc(-c4c[nH]c5ncc(F)cc45)ncc3F)C2)c1)c1ccc(F)cc1` (stereo partly drawn) [Compound A131], the EC50 was > 100 µM. Then `CCOCCOCCCC1CCN(C(=O)N[C@@H]2CCC[C@H](Nc3nc(-c4c[nH]c5ncc(F)cc45)ncc3F)C2)C1` (stereo partly drawn) [Compound A7], with 5 to 25 µM. Then `CCOc1cccc(-c2cncc(C(=O)N[C@@H]3CCC[C@H](Nc4nc(-c5c[nH]c6ncc(F)cc56)ncc4F)C3)c2)c1` [Compound A68], with 25 to 50 µM; and `O=C(N[C@@H]1CCC[C@H](Nc2nc(-c3c[nH]c4ncc(F)cc34)ncc2F)C1)c1cc(CCCOCCOCc2ccccc2)ccn1` [Compound A34], with > 100 µM. Consider `O=C(O)CCOCCOCCOCC(=O)N[C@H]1CCC[C@@H](Nc2nc(-c3c[nH]c4ncc(F)cc34)ncc2F)C1` [Compound A268], for which the EC50 is < 5 µM. As for `CC(C)[C@H](NC(=O)OCc1ccnc(C(=O)N[C@@H]2CCC[C@H](Nc3nc(-c4c[nH]c5ncc(F)cc45)ncc3F)C2)c1)C(=O)O` [Compound A135], the figure is 5 to 25 µM. `CCOc1ccc(C(C)NC(=O)OCc2ccnc(C(=O)N[C@H]3CCC[C@@H](Nc4nc(-c5c[nH]c6ncc(F)cc56)ncc4F)C3)c2)cc1` (stereo partly drawn) [Compound A145]: the concentration for a half-maximal effect (EC50) was > 100 µM. Then `O=C(NCc1ccncc1)OCc1ccnc(C(=O)N[C@H]2CCC[C@@H](Nc3nc(-c4c[nH]c5ncc(F)cc45)ncc3F)C2)c1` [Compound A108], with 5 to 25 µM; and `CC(C)[C@@H](NC(=O)OCc1ccnc(C(=O)N[C@@H]2CCC[C@H](Nc3nc(-c4c[nH]c5ncc(F)cc45)ncc3F)C2)c1)C(=O)O` [Compound A142], with < 5 µM. In the case of `CCOCCCc1cccc(CCN(C)C(=O)N[C@H]2CCC[C@@H](Nc3nc(-c4c[nH]c5ncc(F)cc45)ncc3F)C2)n1` [Compound A213], the EC50 is > 100 µM. `O=C(O)COCCOCCOCCC(=O)N[C@H]1CCC[C@@H](Nc2nc(-c3c[nH]c4ncc(F)cc34)ncc2F)C1` [Compound A269]: the EC50 lay within 5 to 25 µM. For `O=C(N[C@H]1CCC[C@@H](Nc2nc(-c3c[nH]c4ncc(F)cc34)ncc2F)C1)c1cc(CC(O)CO)ccn1` (stereo partly drawn) [Compound A50], the EC50 is < 5 µM. Then `CCOCCOCCOCCNC(=O)N[C@@H]1CCC[C@H](Nc2nc(-c3c[nH]c4ncc(F)cc34)ncc2F)C1` [Compound A167], with > 100 µM; and `O=C(N[C@H]1CCC[C@@H](Nc2nc(-c3c[nH]c4ncc(F)cc34)ncc2F)C1)N1CCc2ccccc21` [Compound A14], with 50 to 100 µM; and `CCOCCOCCCCCN(Cc1ccccn1)C(=O)N[C@@H]1CCC[C@H](Nc2nc(-c3c[nH]c4ncc(F)cc34)ncc2F)C1` [Compound A207], with 50 to 100 µM. On to `CCOCCOCCCCCN(C(=O)N[C@H]1CCC[C@@H](Nc2nc(-c3c[nH]c4ncc(F)cc34)ncc2F)C1)C1CC1` [Compound A242], for which the EC50 is > 100 µM. `Cc1cccc(C(=O)N[C@H]2CCC[C@@H](Nc3nc(-c4c[nH]c5ncc(F)cc45)ncc3F)C2)n1` [Compound A47] gave an EC50 of 5 to 25 µM. As for `CCOC(=O)CN1CCC[C@H](Nc2nc(-c3c[nH]c4ncc(F)cc34)ncc2F)C1` [Compound C11], the figure is 25 to 50 µM; as for `CCCCCOCCCc1ccnc(C(=O)N[C@@H]2CCC[C@H](Nc3nc(-c4c[nH]c5ncc(F)cc45)ncc3F)C2)c1` [Compound A27], > 100 µM; as for `O=C(NCCOCCOCCOCCO)N[C@@H]1CCC[C@H](Nc2nc(-c3c[nH]c4ncc(F)cc34)ncc2F)C1` [Compound A166], 5 to 25 µM. As for `CC(C)NCCNC(=O)OCc1ccnc(C(=O)N[C@H]2CCC[C@@H](Nc3nc(-c4c[nH]c5ncc(F)cc45)ncc3F)C2)c1` [Compound A116], the figure is 5 to 25 µM; as for `CCOCCOCCCCCN(Cc1ccccc1)C(=O)N[C@@H]1CCC[C@H](Nc2nc(-c3c[nH]c4ncc(F)cc34)ncc2F)C1` [Compound A182], 50 to 100 µM. For the compound `CCCOCCCCCc1ccnc(C(=O)N[C@@H]2CCC[C@H](Nc3nc(-c4c[nH]c5ncc(F)cc45)ncc3F)C2)c1` [Compound A28], the EC50 is > 100 µM. Compound `O=C(NCc1cccnc1)OCc1ccnc(C(=O)N[C@@H]2CCC[C@H](Nc3nc(-c4c[nH]c5ncc(F)cc45)ncc3F)C2)c1` [Compound A93] yielded an EC50 of 5 to 25 µM. As to `CCOCCCCCCc1ccnc(C(=O)N[C@H]2CCC[C@@H](Nc3nc(-c4c[nH]c5ncc(F)cc45)ncc3F)C2)c1` [Compound A30], the EC50 is > 100 µM. Then `CCOCCCc1ccnc(C(=O)N[C@@H]2CCC[C@H](Nc3nc(-c4c[nH]c5ncc(F)cc45)ncc3F)C2)c1` [Compound A38], with 25 to 50 µM. `CCCOCCCCCCCN(C)C(=O)N[C@@H]1CCC[C@H](Nc2nc(-c3c[nH]c4ncc(F)cc34)ncc2F)C1` [Compound A199]: the EC50 is > 100 µM. As for `CCOC1CCCCC1OCCCCCN(C)C(=O)N[C@H]1CCC[C@@H](Nc2nc(-c3c[nH]c4ncc(F)cc34)ncc2F)C1` (stereo partly drawn) [Compound A245], the figure is > 100 µM. As for `CCOCCCCCOCC(=O)N[C@@H]1CCC[C@H](Nc2nc(-c3c[nH]c4ncc(F)cc34)ncc2F)C1` [Compound A274], the figure is > 100 µM; as for `O=C(NCC1CCCO1)OCc1ccnc(C(=O)N[C@H]2CCC[C@@H](Nc3nc(-c4c[nH]c5ncc(F)cc45)ncc3F)C2)c1` (stereo partly drawn) [Compound A106], 5 to 25 µM; as for `CCOc1ccccc1OCCCCCN(C)C(=O)N[C@H]1CCC[C@@H](Nc2nc(-c3c[nH]c4ncc(F)cc34)ncc2F)C1` [Compound A225], > 100 µM. The compound `NCCOCCOCCOCC(=O)N[C@@H]1CCC[C@H](Nc2nc(-c3c[nH]c4ncc(F)cc34)ncc2F)C1` [Compound A267] displayed an EC50 of 25 to 50 µM.

`CCOCCOCCCC1CCCN(C(=O)N[C@@H]2CCC[C@H](Nc3nc(-c4c[nH]c5ncc(F)cc45)ncc3F)C2)C1` (stereo partly drawn) [Compound A4] registered an EC50 of 50 to 100 µM. Then `CCc1cccc(OCCOCc2ccnc(C(=O)N[C@H]3CCC[C@@H](Nc4nc(-c5c[nH]c6ncc(F)cc56)ncc4F)C3)c2)c1` [Compound A72], with 25 to 50 µM; and `CCOCCCc1cncc(CCN(C)C(=O)N[C@H]2CCC[C@@H](Nc3nc(-c4c[nH]c5ncc(F)cc45)ncc3F)C2)c1` [Compound A215], with > 100 µM.
